Like-named read-outs stand apart in the source and are kept apart here.
Assays:
[1] = tested on: AsPC-1; assay: MTT cell viability assay, AsPC-1; format: cell-based; details: for IC50: Homo sapiens, ASPC1, AsPC-1 pancreatic cancer, MTT, 72 h; for Selectivity Index (SI): IC50 in normal (HFF-1) fibroblast cells/IC50 in AsPC-1
Method: (§1) Compounds 4a–p were submitted to a preliminary MTT assay at a one-point screening concentration of 75 μM for 72 h, including 2b as a reference compound (Figure 3). […] The presence of the electron-donating methoxy group decreased the activity of 2b, in both the para and meta positions. […] Specifically, these compounds, namely 4d, 4e, 4f, 4h, 4i, 4j, 4k, 4l, and 4m, were tested at concentrations of 3, 6, 12 and 24 µM for 72 h. In addition, the nine compounds, together with 2b, were tested against human fibroblasts HFF-1, in order to evaluate their selectivity against tumor cells, as compared to normal cells. Effects on cancer or normal cell viability were extrapolated from concentration–response curves and are expressed as IC50 values in Table 2.
(§2) Pancreatic cancer (AsPC-1, BxPC-3, and Capan-2), paraganglioma (PTJ86i and PTJ64i) and normal fibroblast (HFF-1) cell lines were cultured as previously described. All compounds were dissolved in DMSO (stock solutions) and then diluted in culture media to the final working concentrations. In this way, the solutions were completely clear and devoid of any undissolved material by microscopic inspection. […] The effects of compounds 4a-p and 2b on cancer cell viability were tested by an MTT assay (Sigma-Aldrich, St. Louis, MO, USA), as described by Florio et al.. In the initial screening all compounds were tested at a one-point screening concentration of 75 μM for 72 h (five replica wells per each condition). […] For combined treatments, the experimental design was made according to the Chou–Talalay method for drug combination studies, as previously described.
(§3) IC50 values were extrapolated from concentration–response curves and calculated using the CompuSyn software. […] Based on this analysis, a CI < 1 indicates synergism, a CI = 1 indicates additive effects and a CI > 1 indicates antagonism. SI values were calculated as previously described. Comparisons of mean values were performed using an unpaired Student’s t-test. For multiple comparisons, a one-way ANOVA followed by Dunnett’s test were employed. A p-value < 0.05 was estimated as statistically significant.

[2] = tested on: HFF-1; assay: MTT cell viability assay, normal fibroblasts HFF-1; format: cell-based, human; details: Homo sapiens; HFF-1 normal cells, MTT, 72 h
Method: All compounds were dissolved in DMSO (stock solutions) and then diluted in culture media to the final working concentrations. […] The effects of compounds 4a-p and 2b on cancer cell viability were tested by an MTT assay (Sigma-Aldrich, St. Louis, MO, USA), as described by Florio et al. [17]. In the initial screening all compounds were tested at a one-point screening concentration of 75 μM for 72 h (five replica wells per each condition).
IC50 values were extrapolated from concentration–response curves and calculated using the CompuSyn software [45]. […] SI values were calculated as previously described [46]. Comparisons of mean values were performed using an unpaired Student’s t-test. For multiple comparisons, a one-way ANOVA followed by Dunnett’s test were employed. A p-value < 0.05 was estimated as statistically significant.

[3] = tested on: BxPC-3; assay: MTT cell viability assay, BxPC-3; format: cell-based; details: for IC50: Homo sapiens, BxPC-3 pancreatic cancer, MTT, 72 h; for Selectivity Index (SI): IC50 in normal (HFF-1) fibroblast cells/IC50 in BxPC-3
Method: as §1, §2, §3

[4] = tested on: PTJ86i; assay: MTT cell viability assay, PTJ86i; format: cell-based; details: for Selectivity Index (SI): IC50 in normal (HFF-1) fibroblast cells/IC50 in PTJ86i; for IC50: PTJ86i paraganglioma, MTT, 72 h
Method: as §1, §2, §3

[5] = tested on: pancreatic (AsPC-1, BxPC-3, and Capan-2) and paraganglioma (PTJ64i and PTJ86i) cancer cell lines; assay: One-point MTT screening at 75 µM in cancer cell lines; format: cell-based; details: one-point screening concentration of 75 μM for 72 h, five cancer cell lines
Method: as §1, §2
Figure 3 Screening of the effects of novel derivatives (4a–p) on the viability of pancreatic (AsPC-1, BxPC-3, and Capan-2) and paraganglioma (PTJ64i and PTJ86i) cancer cell lines. The lead compound 2b was included as a reference and the histograms show the relative decrease of cancer cell viability observed after treatments, as compared to 2b. Cell viability was assessed by an MTT assay using compounds at 75 µM for 72 h. Data shown are the means ± SD of duplicate experiments with quintuplicate determinations and are calculated as ratios relative to the reference compound 2b (dashed line).

[6] = tested on: PTJ64i; assay: MTT cell viability assay, PTJ64i; format: cell-based; details: for Selectivity Index (SI): IC50 in normal (HFF-1) fibroblast cells/IC50 in PTJ64i; for IC50: PTJ64i paraganglioma, MTT, 72 h
Method: as §1, §2, §3

[7] = tested on: Capan-2; assay: MTT cell viability assay, Capan-2; format: cell-based; details: for IC50: Homo sapiens, Capan-2 pancreatic cancer, MTT, 72 h; for Selectivity Index (SI): IC50 in normal (HFF-1) fibroblast cells/IC50 in Capan-2
Method: as §1, §2, §3

[8] = tested on: PTJ86i; set-up: method as in PMID 28594934; details: PTJ86i paraganglioma, previously published; cited from earlier work
[9] = tested on: PTJ64i; set-up: method as in PMID 28594934; details: PTJ64i paraganglioma, previously published; cited from earlier work

| SMILES | melting point | IC50 [1] | Selectivity Index (SI) [1] | IC50 [2] | IC50 [3] | Selectivity Index (SI) [3] | Selectivity Index (SI) [4] | IC50 [4] | effect on cancer cell viability, potency compared with 2b [5] | Selectivity Index (SI) [6] | IC50 [6] | IC50 [7] | Selectivity Index (SI) [7] | IC50 [8] | IC50 [9] |
| --- | --- | --- | --- | --- | --- | --- | --- | --- | --- | --- | --- | --- | --- | --- | --- |
| O=C(Nc1cccc([N+](=O)[O-])c1)C(Sc1nc2cc(Cl)ccc2s1)c1ccccc1 (stereo not shown) [4k, 2-[(5-Chlorobenzo[d]thiazol-2-yl)thio]-N-(3-nitrophenyl)-2-phenylacetamide] | 193 to 195 °C | 10.1 µM | 2.31 | 23.3 µM | 11.9 µM | 1.96 | 1.73 | 13.5 µM | greater antiproliferative activity than 2b | 3.12 | 7.47 µM | 16.9 µM | 1.38 | – | – |
| O=C(Nc1cccc(F)c1)C(Sc1nc2cc(Cl)ccc2s1)c1ccccc1 (stereo not shown) [4i, 2-[(5-Chlorobenzo[d]thiazol-2-yl)thio]-N-(3-fluorophenyl)-2-phenylacetamide] | 151 to 153 °C | 14.8 µM | 1.01 | 15 µM | 18.6 µM | 0.81 | 1.28 | 11.7 µM | greater antiproliferative activity than 2b | 1.74 | 8.6 µM | 28.5 µM | 0.53 | – | – |
| O=C(Nc1ccccc1)C(Sc1nc2cc(Cl)ccc2s1)c1ccccc1 (stereo not shown) [2b, reference compound] | – | 12.4 µM | 1.72 | 21.4 µM | 15 µM | 1.43 | 1.28 | – | – | 2.52 | – | 19.7 µM | 1.09 | 16.7 µM | 8.49 µM |

Reference: article PMC9412555, “Benzothiazole Derivatives Endowed with Antiproliferative Activity in Paraganglioma and Pancreatic Cancer Cells: Structure–Activity Relationship Studies and Target Prediction Analysis” (Pharmaceuticals, 2022)
